Values belong to the molecule of their own block, whether it stands above or below them.
Tests used:
22RV-1 tumor xenograft = experiment: In vivo 22Rv1 xenografts efficacy; set-up: species or system mice; conditions: 14 day
Method: (§1) Mice were housed in pathogen-free animal facilities at New England Life Sciences (NELS, New Haven, Conn.). All experiments were conducted under an IACUC protocol that was approved by the NELS IACUC committee. Male Nu/Nu mice and CB17 SCID mice were obtained at 4-5 weeks age from Charles River Laboratories and implanted subcutaneously with 5×10^6 22Rv1 cells or 5×10^6 VCaP cells in Matrigel (Corning Life Sciences). After 10-14 days, mice bearing >200 mm^3 tumors were randomized into indicated number of groups with ten mice in each group while ensuring identical (±5 mm^3) mean tumor volume in each group. Dosing was carried out through the indicated route and with the indicated schedule for each drug for up to three weeks, depending on the experiment. Mice were sacrificed eight hours after the final dose. Blood was collected, processed to plasma, and flash frozen for PK analysis. Tissues were harvested and flash frozen for further analysis. All PK analysis was carried out at Drumetix Laboratories (Greensboro, N.C.). 2 out of 10 animals in each study arm were randomly excluded in pharmacodynamic analysis, for greater technical ease of running a 20-well protein gel. For PSA ELISA, only samples with at least 25 uL plasma remaining after PK analysis were utilized using the Cell Signaling PathScan® Total PSA/KLK3 Sandwich ELISA Kit #14119 following the manufacturer's protocol. […]

BRD4 [1] = target: T1, BRD4 (Homo sapiens, UniProt O60885); experiment: Immunoblotting, BRD4 degradation; format: cell-based; set-up: compounds which function to recruit endogenous proteins, e.g., BRd4, to E3 Ubiquitin Ligase for ubiquitination and degradation; endogenous in cells; host or cells: 22Rv1, VCaP, LnCaP95
Excerpt: (§2) 22Rv1 and VCaP cell lines were purchased from ATCC. LnCap95 cells were a generous gift from Dr. Alan Meeker at The Johns Hopkins University School of Medicine. BRD2 (#5848), BRD4 (#13440), PARP (#9532), c-Myc (#5605) antibodies were purchased from cell signaling. BRD3 (sc-81202) antibody was purchased from Santa Cruz Biotech. Antibodies used for immunohistochemistry were c-MYC (abcam #ab32072) and BRD4 (Bethyl Laboratories #a301-985a50). Actin and Tubulin antibodies were purchased from Sigma.
(§3) Cells were lysed in RIPA buffer (Thermo Fisher Cat #89900) supplemented with protease inhibitors (Pierce™ Protease Inhibitor Tablets, EDTA-free Cat #88266). Lysates were centrifuged at 16,000×g and supernatants were used for SDS-PAGE. Western blotting was carried out following standard protocols.

BRD3 = target: T2, BRD3 (Homo sapiens, UniProt Q15059); experiment: Immunoblotting, BRD3 degradation; format: cell-based; conditions: 22RV-1, VCaP, and LnCaP95 cells (FIG. 1)
T2 construct: endogenous in cells; host or cells: 22Rv1, VCaP, LnCaP95
Excerpt: as §2, §3

BRD4 [2] = target: T1, BRD4; experiment: BRD4 degradation in 22RV-1 tumor xenograft study; format: in vivo; set-up: from tissue; host or cells: 22Rv1 tumour xenograft harvested from mice; conditions: 14-day 22RV-1 tumor xenograft study; dosed subcutaneously to mice at 10 mg/kg (qd) for 2 weeks (FIG. 6)
Method: As a comparison, OTX-015 was also included (50 mg/kg, p.o., qd). Example 77 was dosed subcutaneously to mice at 10 mg/kg (qd) for 2 weeks.
as §1, with “gel.” for “gel. For PSA ELISA, only samples with at least 25 uL plasma remaining after PK analysis were utilized using the Cell Signaling PathScan® Total PSA/KLK3 Sandwich ELISA Kit #14119 following the manufacturer's protocol.”

c-myc in 22RV-1 cells = experiment: Human c-myc ELISA assay; format: cell-based; conditions: for Emax / DC50: Homo sapiens; for Emax: 22Rv1, 18 h, read-out: Degradation of BRD4: Maximum inhibition (%) c-Myc ELISA in 22RV1 cells; for DC50: 22Rv1, read-out: Degradation of BRD4: DC50 (uM) c-Myc ELISA in 22RV1 cells
How it was run: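 22RV-1 cells treated 18 h with 8-point 1:3 compound dilutions (final top 300 nM or 1 μM, 0.1% DMSO). Cells lysed in RIPA buffer with protease/phosphatase inhibitors, and c-myc protein in cleared lysate quantified by ELISA against a standard curve. DC50 reported for c-myc suppression.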

BRD2 = target: T3, BRD2 (Homo sapiens, UniProt P25440); experiment: Immunoblotting, BRD2 degradation; format: cell-based; conditions: 22RV-1, VCaP, and LnCaP95 cells (FIG. 1)
T3 construct: endogenous in cells; host or cells: 22Rv1, VCaP, LnCaP95
Excerpt: as §2, §3

22RV-1 cells [3] = experiment: Apoptosis assay (Caspase-Glo 3/7); format: cell-based; conditions: FIG. 5
Method: (§4) 22RV-1 cells are seeded at 5,000 cells/well at a volume of 75 μL/well in RPMI+10% FBS media in 96-well plates and grown overnight at 37 C. Cells are dosed with compounds at 4× concentration diluted in 0.4% DMSO; compounds are serially diluted 1:3 for 8-point dose curve. 25 ul of compounds is added to cells for a final concentration starting at 300 nM-0.3 nM in 0.1% DMSO and incubated for 48 hrs. After 48 hrs, 100 ul of Caspase-Glo® 3/7 (Promega Caspase-Glo 3/7 Assay #G8093 is added and incubated for 30 minutes, then read on luminometer. Data is analyzed and plotted using GraphPad Prism software.

22RV-1 cells [4] = experiment: Cell proliferation assay (CellTiter-Glo); format: cell-based; conditions: FIG. 4
Method: as §4, with “10-point” for “8-point”, “72” for “48”, “hrs. In a separate plate, 100 ul of 5,000 cells/well are plated in 8 wells, 100 ul of CellTiter-Glo (CellTiter-Glo® Luminescent Cell Viability Assay, Promega #G7573) is added and incubated for 30 minutes, then read on luminometer to assess initial signal for cell growth.” for “hrs.”, “CellTiter-Glo” for “Caspase-Glo® 3/7 (Promega Caspase-Glo 3/7 Assay #G8093”

SU-DHL-6 xenografts = experiment: In vivo SU-DHL-6 xenografts efficacy; conditions: CB17 SCID mice
Method: In vivo SU-DHL-6 Xenografts Efficacy
The 4-5 weeks old male CB17 SCID mice were implanted subcutaneously with 5 million SU-DH-L6 GCB-DLBCL cells (in 200 ul volume of 3:1 matrigel:PBS). After 14 days, mice bearing 180-200 mm^3 tumors were randomized into three groups with ten mice in each group while ensuring identical (±5 mm^3) mean tumor volume in each group. […] Tumor volume was monitored twice per week using calipers and body weights were determined daily during the course of the study.

T3 sequence (P25440 whole entry): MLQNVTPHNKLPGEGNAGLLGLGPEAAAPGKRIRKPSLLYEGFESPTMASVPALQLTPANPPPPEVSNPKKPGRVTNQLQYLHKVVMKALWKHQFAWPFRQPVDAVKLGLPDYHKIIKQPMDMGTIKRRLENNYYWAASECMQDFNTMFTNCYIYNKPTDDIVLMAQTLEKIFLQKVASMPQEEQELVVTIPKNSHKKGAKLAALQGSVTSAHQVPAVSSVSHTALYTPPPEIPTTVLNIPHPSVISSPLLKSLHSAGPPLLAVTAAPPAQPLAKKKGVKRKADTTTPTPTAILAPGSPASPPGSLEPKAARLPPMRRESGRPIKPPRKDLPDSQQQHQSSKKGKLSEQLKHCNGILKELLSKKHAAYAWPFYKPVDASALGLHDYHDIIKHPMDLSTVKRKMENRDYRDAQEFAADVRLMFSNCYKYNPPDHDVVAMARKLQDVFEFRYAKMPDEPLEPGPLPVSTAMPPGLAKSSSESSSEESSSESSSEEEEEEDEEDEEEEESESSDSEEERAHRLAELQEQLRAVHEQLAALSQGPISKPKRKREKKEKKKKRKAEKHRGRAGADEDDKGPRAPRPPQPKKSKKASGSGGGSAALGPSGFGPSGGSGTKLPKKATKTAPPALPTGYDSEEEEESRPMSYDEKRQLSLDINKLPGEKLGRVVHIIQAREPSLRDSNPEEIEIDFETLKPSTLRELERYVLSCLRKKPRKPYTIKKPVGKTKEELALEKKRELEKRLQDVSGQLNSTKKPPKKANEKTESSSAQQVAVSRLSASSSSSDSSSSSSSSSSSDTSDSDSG
T2 sequence (Q15059 whole entry): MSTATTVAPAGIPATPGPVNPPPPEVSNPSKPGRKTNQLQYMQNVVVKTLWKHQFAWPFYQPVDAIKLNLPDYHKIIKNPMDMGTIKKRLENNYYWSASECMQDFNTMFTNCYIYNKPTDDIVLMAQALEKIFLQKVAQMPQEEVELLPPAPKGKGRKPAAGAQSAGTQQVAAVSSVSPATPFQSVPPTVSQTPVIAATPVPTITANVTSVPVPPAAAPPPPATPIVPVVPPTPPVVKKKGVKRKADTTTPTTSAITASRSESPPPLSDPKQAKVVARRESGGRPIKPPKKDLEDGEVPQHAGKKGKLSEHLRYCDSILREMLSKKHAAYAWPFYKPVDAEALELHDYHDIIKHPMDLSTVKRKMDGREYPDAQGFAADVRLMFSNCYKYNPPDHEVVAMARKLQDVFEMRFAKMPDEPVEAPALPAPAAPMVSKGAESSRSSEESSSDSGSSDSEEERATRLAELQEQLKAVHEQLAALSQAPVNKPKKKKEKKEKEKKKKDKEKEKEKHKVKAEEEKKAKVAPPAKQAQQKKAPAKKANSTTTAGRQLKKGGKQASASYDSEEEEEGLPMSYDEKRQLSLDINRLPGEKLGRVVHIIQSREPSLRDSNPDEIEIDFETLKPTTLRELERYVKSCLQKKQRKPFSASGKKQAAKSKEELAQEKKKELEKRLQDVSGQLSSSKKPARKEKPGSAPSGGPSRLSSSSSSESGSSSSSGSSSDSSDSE

- degradation of BRD4 (BRD4 [1]; 22RV-1, VCaP, and LnCaP95 cells (FIG. 1)): degradation
- BRD4 degradation after pretreatment with an excess of VHL ligand ARV-056 (BRD4 [1]; FIG. 2): blocked
- BRD4 degradation in presence of proteasome inhibitor carfilzomib (BRD4 [1]; FIG. 2): blocked
- degradation of BRD3 (BRD3): degradation
- degradation of BRD4 in tumor xenograft (BRD4 [2]): degradation of BRD4
- DC50 (c-myc in 22RV-1 cells): < 0.01 µM
- degradation of BRD2 (BRD2): degradation
SMILES: Cc1ncsc1-c1ccc([C@H](C)NC(=O)[C@@H]2C[C@@H](O)CN2C(=O)[C@@H](NC(=O)COCCCOCCNC(=O)C[C@@H]2N=C(c3ccc(Cl)cc3)c3c(sc(C)c3C)-n3c(C)nnc32)C(C)(C)C)cc1 [Example 77, (2S, 4R)-1-[(2S)-2-{2-[3-(2-{2-[(9S)-7-(4-chlorophenyl)-4,5,13-trimethyl-3-thia-1,8,11,12-tetraazatricyclo[8.3.0.0^2,^6]trideca-2(6),4,7,10,12-pentaen-9-yl]acetamido}ethoxy)propoxy]acetamido}-3,3-dimethylbutanoyl]-4-hydroxy-N-[(1S)-1-[4-(4-methyl-1,3-thiazol-5-yl)phenyl]ethyl]pyrrolidine-2-carboxamide]
- tumor response in 22RV-1 mice tumor xenograft model (22RV-1 tumor xenograft; subcutaneous dosing (FIG. 7)): tumor regression
- suppression of cellular c-MYC levels measured by ELISA (c-myc in 22RV-1 cells; FIG. 3): suppression
- Emax (c-myc in 22RV-1 cells): 100%
- caspase activation in prostate cancer cell lines (22RV-1 cells [3]): caspase activation
- proliferation inhibition of prostate cancer cell growth (22RV-1 cells [4]): proliferation inhibition

SMILES: Cc1ncsc1-c1ccc([C@H](C)NC(=O)[C@@H]2C[C@@H](O)CN2C(=O)[C@@H](NC(=O)c2cc3cc(O[C@H]4C[C@@H](NC(=O)C[C@@H]5N=C(c6ccc(Cl)cc6)c6c(sc(C)c6C)-n6c(C)nnc65)C4)ccc3o2)C(C)(C)C)cc1 [Example 195, (2S,4R)-1-[(2S)-3,3-dimethyl-2-({5-[(1,3cis)-3-{2-[(9S)-7-(4-chlorophenyl)-4,5,13-trimethyl-3-thia-1,8,11,12-tetraazatricyclo[8.3.0.0^2,^6]trideca-2(6),4,7,10,12-pentaen-9-yl]acetamido}cyclobutoxy]-1-benzofuran-2-yl}formamido)butanoyl]-4-hydroxy-N-[(1S)-1-[4-(4-methyl-1,3-thiazol-5-yl)phenyl]ethyl]pyrrolidine-2-carboxamide]
- Emax (c-myc in 22RV-1 cells): 100%
- DC50 (c-myc in 22RV-1 cells): < 0.01 µM
- in vivo growth of SU-DHL-6 xenografts (SU-DHL-6 xenografts; 6MPK Q3D iv dosing, n=10 (FIG. 10)): tumor regression

SMILES: Cc1ncsc1-c1ccc([C@H](C)NC(=O)[C@@H]2C[C@@H](O)CN2C(=O)[C@@H](NC(=O)CN2CCC(O[C@H]3C[C@H](NC(=O)c4ccc5c6ncc(-c7c(C)noc7C)cc6n([C@H](c6ccccc6)C6CCOCC6)c5c4)C3)CC2)C(C)(C)C)cc1 [Example 365, (2S,4R)-1-[(2S)-3,3-dimethyl-2-(2-{4-[(1,3-trans)-3-[3-(dimethyl-1,2-oxazol-4-yl)-5-[(S)-oxan-4-yl(phenyl)methyl]-5H-pyrido[3,2-b]indole-7-amido]cyclobutoxy]piperidin-1-yl}acetamido)butanoyl]-4-hydroxy-N-[(1S)-1-[4-(4-methyl-1,3-thiazol-5-yl)phenyl]ethyl]pyrrolidine-2-carboxamide]
- Emax (c-myc in 22RV-1 cells): 100%
- DC50 (c-myc in 22RV-1 cells): < 0.01 µM

SMILES: Cc1ncsc1-c1ccc([C@H](C)NC(=O)[C@@H]2C[C@@H](O)CN2C(=O)[C@@H](NC(=O)CN2CCC(O[C@H]3C[C@H](NC(=O)c4ccc5c6ncc(-c7c(C)noc7C)cc6n([C@@H](c6ccccc6)C6CCOCC6)c5c4)C3)CC2)C(C)(C)C)cc1 [Example 366, (2S,4R)-1-[(2S)-3,3-dimethyl-2-(2-{4-[(1,3-trans)-3-[3-(dimethyl-1,2-oxazol-4-yl)-5-[(R)-oxan-4-yl(phenyl)methyl]-5H-pyrido[3,2-b]indole-7-amido]cyclobutoxy]piperidin-1-yl}acetamido)butanoyl]-4-hydroxy-N-[(1S)-1-[4-(4-methyl-1,3-thiazol-5-yl)phenyl]ethyl]pyrrolidine-2-carboxamide]
- Emax (c-myc in 22RV-1 cells): 100%
- DC50 (c-myc in 22RV-1 cells): < 0.01 µM

- DC50 (c-myc in 22RV-1 cells): 0.01 to 0.1 µM
SMILES: Cc1ncsc1-c1ccc([C@H](C)NC(=O)[C@@H]2C[C@@H](O)CN2C(=O)[C@@H](NC(=O)CN2CCC(N3C[C@@H]4C[C@H]3CN4C(=O)C[C@@H]3N=C(c4ccc(Cl)cc4)c4c(sc(C)c4C)-n4c(C)nnc43)CC2)C(C)(C)C)cc1 [Example 368, (2S,4R)-1-[(2S)-2-(2-{4-[(1S,4S)-5-{2-[(9S)-7-(4-chlorophenyl)-4,5,13-trimethyl-3-thia-1,8,11,12-tetraazatricyclo[8.3.0.0^2,6]trideca-2(6),4,7,10,12-pentaen-9-yl]acetyl}-2,5-diazabicyclo[2.2.1]heptan-2-yl]piperidin-1-yl}acetamido)-3,3-dimethylbutanoyl]-4-hydroxy-N-[(1S)-1-[4-(4-methyl-1,3-thiazol-5-yl)phenyl]ethyl]pyrrolidine-2-carboxamide]
- Emax (c-myc in 22RV-1 cells): 100%

SMILES: Cc1sc2c(c1C)C(c1ccc(Cl)cc1)=N[C@@H](CC(=O)Nc1ccc(O)cc1)c1nnc(C)n1-2 [OTX015, reference compound]
- in vivo growth of SU-DHL-6 xenografts (SU-DHL-6 xenografts; daily po administration of 25MPK (FIG. 10)): no effect

SMILES: Cc1sc2c(c1C)C(c1ccc(Cl)cc1)=N[C@@H](CC(=O)Nc1ccc(O)cc1)c1nnc(C)n1-2 [OTX-015, reference compound]
- tumor response in 22RV-1 mice tumor xenograft model, comparator (22RV-1 tumor xenograft; OTX-015 as comparison (FIG. 7)): tumor growth inhibition
